Laboratory results reported in patent US20230348373A1, “DEUTERATED DERIVATIVES OF 6,8-BIS(BENZYLSULFANYL)OCTANOIC ACID” (Rafael Pharmaceuticals, Inc., priority 2019, published 2023).

Assays:
[1] = after IV dosing; Pardee et al. 2014; cited from earlier work
[2] = system: LoVo colorectal cancer cell line; assay: Cell viability (Cell Titer-Glo) in LoVo cells; type: cell-based; conditions: Homo sapiens, replete media, 48 h incubation, 24 h recovery; for IC50: first value of IC50/IC90; for IC90: second value of IC50/IC90
Description: (§1) Biological activity was assessed in vitro in the following pancreatic cancer and colorectal cancer cell lines. • Pancreatic cancer cell lines • Panc-1: non-metastatic; mutations: KRAS, TP53 • AsPC-1: metastatic; mutations: KRAS, TP53, CDKN2A, MAP2K4 • Colorectal cancer cell lines • LoVo: metastatic; mutations: APC, KRAS, FBXW7, […] • SW620: metastatic; mutations: KRAS, TP53
(§2) Tumor cells were maintained at 37° C. in a humidified 5% CO2 atmosphere in T75 tissue culture flask containing 10 mL of RPMI 1640 (PANC-1), DMEM (AsPC-1), F12K (LoVo) or L15 (SW620), containing 2 mM L-glutamine, 10% fetal bovine serum (FBS) and 1% penicillin and streptomycin. The tumor cells were split at a ratio of 1:5 every 4-5 days by trypsinization and suspended in fresh medium in a new flask. Cells were harvested for experiments at 80-95% confluency.
(§3) PANC-1 cells in RPMI medium with 10% FBS (12,000 cells/well in 96 well plate) were incubated with increasing concentrations (12.5, 25, 50, 100, 150, and 200 µM), of test compound at 37° C. under 5% CO2 for 48 hours. Cells were undergone for another 24 hr recovery, in fresh RPMI media without serum. Cell viability was assessed using the Promega Cell Titer-Glo assay kit, following their protocol. Cell viability was measured based on the amount of ATP produced by the total number of cells present in each well using FLUOSTAR OPTIMA plate reader in the Luminescence mode. Production of ATP in Luminescence unit is directly proportional to the number of live cells. % live cells were calculated and SEM was also calculated as average of 3 replica wells.
(§4) Test compounds were screened for activity in AsPC-1 cells and the colon cancer cells using similar procedures but replacing RPMI with the respective media indicated above for the initial 48 hour incubation (i.e., DMEM (AsPC-1), F12K ( LoVo ), or L15 (SW620)), and RPMI was always used for the 24 hour recovery. Cells seeded for AsPc-1 (25,000 cells/well), LoVo (25,000 cells/well) and SW620 (25,000 cells/well) to achieve ~ 50% confluency after 24 hrs of seeding.

[3] = system: Panc-1 pancreatic cancer cell line; assay: Cell viability (Cell Titer-Glo) in Panc-1 cells; type: cell-based; conditions: Homo sapiens, replete media, 48 h incubation, 24 h recovery; for IC50: first value of IC50/IC90; for IC90: second value of IC50/IC90
Description: as §1, §2, §3

[4] = system: AsPC-1 pancreatic cancer cell line; assay: Cell viability (Cell Titer-Glo) in AsPC-1 cells; type: cell-based; conditions: Homo sapiens, ASPC1, replete media, 48 h incubation, 24 h recovery; for IC50: first value of IC50/IC90
Description: as §1, §2, §3, §4

[5] = system: SW620 colorectal cancer cell line; assay: Cell viability (Cell Titer-Glo) in SW620 cells; type: cell-based; conditions: Homo sapiens, SW-620, replete media, 48 h incubation, 24 h recovery; for IC50: first value of IC50/IC90
Description: as §1, §2, §3, §4

SMILES	IC50 [2] [µM]	IC50 [3] [µM]	IC50 [4] [µM]	IC50 [5] [µM]	IC90 ([4]; second value of IC50/IC90) [µM]	IC90 [2] [µM]	IC90 ([5]; second value of IC50/IC90) [µM]	IC90 [3] [µM]	half-life [1] [h]
O=C(O)CCCCC(CCSCc1ccccc1)SCc1ccccc1 (centres unmarked) [CPI-613, 6,8-bis(benzylsulfanyl)octanoic acid]	–	–	–	–	–	–	–	–	1 to 2
[2H]C([2H])(CCC(CCSCc1ccccc1)SCc1ccccc1)CC(=O)O (centres unmarked) [Compound I-10, 6,8-bis(benzylsulfanyl)-3,3-dideuterio-octanoic acid]	> 300	> 300	–	–	–	–	–	–	–
[2H]C([2H])(CC(=O)O)C([2H])([2H])CC(CCSCc1ccccc1)SCc1ccccc1 (centres unmarked) [Compound I-24, 6,8-bis(benzylsulfanyl)-3,3,4,4-tetradeuterio-octanoic acid]	> 300	> 300	–	–	–	–	–	–	–
[2H]C(O)(CCC(CCSCc1ccccc1)SCc1ccccc1)CC(=O)N1CCNCC1 (centres unmarked) [Compound I-79]	181	44	–	–	–	254	–	282	–

Now from value to compound, other results behind:

IC50 [2] [µM]	IC50 [3] [µM]	IC50 [4] [µM]	IC50 [5] [µM]	IC90 ([4]; second value of IC50/IC90) [µM]	IC90 [2] [µM]	IC90 ([5]; second value of IC50/IC90) [µM]	IC90 [3] [µM]	SMILES	half-life [1] [h]
> 300	> 300	314	> 300	–	–	–	–	[2H]C(O)(CCC(CCSCc1ccccc1)SCc1ccccc1)CC(=O)O (centres unmarked) [Compound I-77]	–
26	–	28	28	65	39	37	73	[2H]C(O)(CCC(CCSCc1ccccc1)SCc1ccccc1)CC(N)=O (centres unmarked) [Compound I-78]	–
